The values that follow are results of earlier work, collected in article PMC4832855 (Cancer Science, 2016).

A value given as a limit tells only on which side of the number the result lay.

Test systems include patients; IGF‐1R; Btc; Jak2; AurB; Src; p381; Met; Lck; IR; AurA.
Holding throughout (settings): cited from earlier work

For `C[C@@]1(C(=O)Nc2ccc(F)nc2)CCCN1c1nc(Nc2cc(C3CC3)n[nH]2)c2cccn2n1` [BMS‐754807], the “Activity as monotherapy in early clinical trials” value in the data set with patients is listed as “only modest activity”.
What is called IC50 is the midpoint of a concentration-inhibition curve. On to `C[C@]1(O)C[C@@H](c2nc(-c3ccc4ccc(-c5ccccc5)nc4c3)c3c(N)nccn32)C1` [Linsitinib], for which the IC50 in the data set on IGF‐1R is […]; in the data set with Btc, greater than 10 µM; with Jak2 it was greater than 10 µM; in the data set on AurB, greater than 10 µM; in the data set on Src, greater than 10 µM; with p381, greater than 10 µM. Further, the half-inhibitory concentration (IC50) is greater than 10 µM in the data set on Met, greater than 10 µM in the data set with Lck, 0.075 µM in the data set with IR and greater than 10 µM in the data set on AurA. Besides, the “Activity as monotherapy in early clinical trials” value in the data set with patients was “only modest activity”. Further, in the data set with patients (monotherapy, phase III, metastatic adrenocortical carcinoma), the “Overall or progression‐free survival compared to placebo” value was “did not increase”.
